Assay [1] concerns the target T1, NanoLuc–SIRT2 fusion protein in HEK293T cells (Homo sapiens, UniProt Q8IXJ6).
T1 construct: transfected HEK293T cells expressing the NanoLuc-tagged SIRT250-356 fusion protein were used instead of transient; expressed in transfected cells; host or cells: HEK293T (stably transfected)
T1 sequence (Q8IXJ6 50-356 limits assumed): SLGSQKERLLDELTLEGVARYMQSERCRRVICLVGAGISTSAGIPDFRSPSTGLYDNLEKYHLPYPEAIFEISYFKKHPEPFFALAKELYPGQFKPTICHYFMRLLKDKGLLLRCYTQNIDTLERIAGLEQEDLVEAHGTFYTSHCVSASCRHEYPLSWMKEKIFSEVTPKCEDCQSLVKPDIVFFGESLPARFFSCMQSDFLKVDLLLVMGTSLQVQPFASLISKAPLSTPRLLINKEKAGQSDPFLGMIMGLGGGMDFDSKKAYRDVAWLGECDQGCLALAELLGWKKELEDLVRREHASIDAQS
The experiment in a line: NanoBRET cellular target engagement assay. The class given is cell-based. The settings on record: for Ki: read-out: NanoBRET K i (Cheng–Prusoff). As for the experimental part: The NanoBRET target engagement assay was performed as previously described[2] with the modification that stably transfected HEK293T cells expressing the NanoLuc-tagged SIRT250-356 fusion protein were used instead of transient transfection. Briefly, HEK293T-NLuc- SIRT250-356 cells were cultured under standard conditions (37 °C, 5% CO2) in DMEM supplemented with 10% fetal bovine serum, 2 mM glutamine, and 300 µg/mL hygromycin as a selection marker. For the assay, cells were trypsinized, resuspended in Opti-MEM® reduced serum medium, and adjusted to a concentration of 2 × 10^5 cells per mL. […]
µM was used. Serially diluted inhibitor and tracer were added to the cell suspension, and 100 μL were seeded into 96-well white, sterile, nonbinding surface plates. To evaluate the cellular permeability of LTDi-1 (6), the non-ionic detergent digitonin (50 µg/ml) was added. Plates were incubated at 37 °C with 5% CO2 for 2 h. For BRET measurements, NanoBRET NanoGlo Substrate (Promega cat. #N1571) was added to the wells according to the […]
All measurements were performed using the 2102 EnVisionTM Multilabel Reader (PerkinElmer), equipped with a 460 nm filter (donor) and a 615 nm filter (acceptor). The BRET ratio was calculated as the ratio of acceptor to donor signal, and data were normalized to vehicle-treated controls. Apparent intracellular binding affinities (EC50 values) were determined by fitting dose-response curves using nonlinear regression analysis in GraphPad Prism. […]

The next assay concerns the target T2, SIRT2 (Homo sapiens, UniProt Q8IXJ6).
T2 construct: For assay experiments, strep-tagged human SIRT1134−747 and SIRT256-356 were expressed and purified as previously; Strep-tag; made in house; host or cells: E. coli BL21 Star (DE3)
T2 sequence (Q8IXJ6 56-356 limits assumed): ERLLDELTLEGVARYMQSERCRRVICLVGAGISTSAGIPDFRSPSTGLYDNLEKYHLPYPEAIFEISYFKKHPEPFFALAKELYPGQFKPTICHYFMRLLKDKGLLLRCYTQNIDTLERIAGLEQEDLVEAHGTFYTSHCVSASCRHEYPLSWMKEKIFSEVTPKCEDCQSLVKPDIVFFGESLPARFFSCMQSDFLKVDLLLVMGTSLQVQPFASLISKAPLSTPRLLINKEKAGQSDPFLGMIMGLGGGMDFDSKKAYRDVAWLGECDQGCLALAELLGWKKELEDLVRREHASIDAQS
The experiment in a line: Differential scanning fluorimetry (DSF) / fluorescence thermal shift assay. The class given is binding.

The mark [2] stands for this setting: 2 µM tracer, co-treatment with digitonin.

Read-outs that look alike come from different tables or passages of the source.

The compound `COCCn1cc(COc2cccc(Cc3cnc(NC(=O)CSc4nc(C)cc(C)n4)s3)c2)nn1` [Compound 1, reference compound] showed an EC50 in assay [1] (without digitonin) of 2700 ± 100 nM. Further, at SIRT2 (upon NAD+ addition), the “NAD+-dependent thermal stabilization of SIRT2” value is “pronounced NAD^+‐dependent thermal stabilization”.
As for `CCCCCCCCCCCCc1cn(CCCC[C@H](NC(=O)[C@H](CCCCN)NC(=O)[C@@H]2CCCN2C(=O)[C@H](CC(C)C)NC(=O)[C@H](C)NC(=O)[C@H](CCC(=O)O)NC(C)=O)C(=O)N[C@H](C(=O)NCC(=O)NCC(N)=O)[C@@H](C)O)nn1` [Compound 6], in assay [1] (setting [2]), the EC50 was found to be 160 ± 20 nM and the Ki worked out at 18 ± 2 nM. Moreover, in assay [1] (2 µM tracer, without digitonin), the EC50 stood at 340 ± 90 nM and the Ki was 38 ± 10 nM. Moreover, on SIRT2 (10 µM compound, with NAD+ addition), the ΔTm at 10 µM was determined as 16.3 ± 0.1 °C.
